Test results: the METLIN SMRT retention time set (Domingo-Almenara et al. 2019)

Experiment: gradient 5% acetonitrile 3 min, to 50% in 2 min, to 85% in 15 min, held 3 min, 100 µL/min
Settings: column: Zorbax Extend-C18 2.1 x 50 mm; eluents: water / acetonitrile, 0.1% formic acid
Summary of the method: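 Pure standards were run in mixtures of ~100 molecules by HPLC coupled to a quadrupole time-of-flight mass spectrometer. The column was a Zorbax Extend-C18 (2.1 × 50 mm, 1.8 μm) at 100 μL/min, with water and acetonitrile each containing 0.1% formic acid, in positive and negative ionization mode. Dead and dwell volumes were 40 μL and 900 μL. Retention time was taken from computationally picked adduct peaks, each manually inspected, with data collected over 3 months.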

COc1ccccc1NC(=O)Cn1ncc2c(N3CCN(c4ccccn4)CC3)ncnc21
RP-LC retention time: 600 s

Cc1csc(NC(=O)C2CCN(S(=O)(=O)c3cc(-c4noc(C)n4)ccc3Cl)CC2)n1
RP-LC retention time: 899 s

CC(=O)Nc1ccc(-n2cnc(C(=O)N3CCN(C4CCCCC4)CC3)c2)nc1
RP-LC retention time: 566 s

OC1(c2ccccn2)CCOC2(CCN(Cc3cccc(C(F)(F)F)c3)CC2)C1 (configuration not stated)
RP-LC retention time: 592 s

COc1ccc2c(=O)c(Oc3ccc(C(=O)Nc4nccs4)cc3)c(C)oc2c1
RP-LC retention time: 788 s

COC(=O)c1cnn(-c2cccc(C)c2)c1-n1cccc1
RP-LC retention time: 964 s

CCc1nnc2ccc(-c3noc(-c4ccc(NC(C)=O)cc4)n3)cn12
RP-LC retention time: 705 s

CCc1noc(-c2cnc3nc(C)ccc3c2NCc2ccccc2C)n1
RP-LC retention time: 784 s

CCC(C)NC(=O)c1c(O)c2sccc2n(Cc2ccccc2)c1=O (configuration not stated)
RP-LC retention time: 1310 s

CSc1ccc(NC(=O)c2c(C)oc3ccn(Cc4ccc(F)cc4)c(=O)c23)cc1
RP-LC retention time: 1270 s

COc1ccc(CC(=O)NCc2c(C)nc3sc(C)nn23)c(Cl)c1
RP-LC retention time: 622 s

COCC1(O)CCOC2(CCN(Cc3cc(C)ccc3C)CC2)C1 (configuration not stated)
RP-LC retention time: 559 s

CC1(C)C(=O)Nc2ccc(S(=O)(=O)N3CCC(c4noc(-c5ccccc5)n4)C3)cc21 (configuration not stated)
RP-LC retention time: 883 s

O=c1n(CCOc2ccccc2)nc2ccc(S(=O)(=O)N3CCCC3)cn12
RP-LC retention time: 842 s

O=C1CC(C(F)(F)F)c2c(c(C(=O)O)cn2-c2cccc(Br)c2)N1 (configuration not stated)
RP-LC retention time: 795 s

CCCN1C(=O)COc2ccc(-c3noc(-c4ccccc4)n3)cc21
RP-LC retention time: 1210 s

Cc1ccc(CN2CCN(C3CCN(S(=O)(=O)c4cc(F)ccc4F)CC3)C(=O)C2=O)cc1
RP-LC retention time: 910 s

O=C(CCn1cccn1)N1CCCn2ccnc2C1C1CCCC1 (configuration not stated)
RP-LC retention time: 582 s

CCOc1ccc(-c2nc(C3CC(=O)N(c4ccc(OC)c(OC)c4)C3)no2)cc1 (configuration not stated)
RP-LC retention time: 912 s

Cc1ccc2c(=O)c3c([nH]c2c1C)CCN(CC(=O)Nc1cccc(C#N)c1)C3
RP-LC retention time: 607 s

Cc1cc(-c2c(C)sc(C)c2S(=O)(=O)Nc2ccc(C(C)C)cc2)n[nH]1
RP-LC retention time: 1200 s

CCn1cc(-c2ccccc2)cc1C(=O)NC(C)c1cccnc1 (configuration not stated)
RP-LC retention time: 692 s

Cn1cc(C2c3nccn3CCCN2C(=O)c2cccn2C)cn1 (configuration not stated)
RP-LC retention time: 564 s

O=C(Cc1cccs1)NC1CCN(C(=O)c2cc(-c3cccs3)[nH]n2)CC1
RP-LC retention time: 704 s

CC(C)Cc1cc(-c2nn3c(-c4ccc(F)cc4)nnc3s2)n[nH]1
RP-LC retention time: 1010 s

CCC(C)N(CC(=O)N1CCc2sccc2C1COc1cccc(F)c1)C(C)=O (configuration not stated)
RP-LC retention time: 754 s

Cc1nc(-c2cc(S(=O)(=O)N3CCN(c4ccccc4F)CC3)c(C)s2)cs1
RP-LC retention time: 1210 s

CCn1c(=O)c(N2CCC(NC(=O)Nc3ccccc3Br)CC2)nc2ccccc21
RP-LC retention time: 1030 s

CC1CCCCN1CCNC(=O)CCCn1c(=O)c2cccn2c2ccc(F)cc21 (configuration not stated)
RP-LC retention time: 641 s

COc1ccc(C2(C(=O)Nc3cc(-c4cccs4)no3)CC2)cc1
RP-LC retention time: 1060 s

Cc1ccc(-c2[nH]ncc2CN2CCC3(CC2)CC(C)(O)CCO3)cc1 (configuration not stated)
RP-LC retention time: 597 s

O=C(NCc1ccccc1Cl)c1nnc(-c2ccc(S(=O)(=O)N3CCOCC3)cc2)o1
RP-LC retention time: 888 s

CC(C)c1cc(=O)n(CC(=O)Nc2cccc3nsnc23)cn1
RP-LC retention time: 664 s

COC(=O)c1c(NC(C)c2cccnc2)c2cccc(Cl)c2[nH]c1=O (configuration not stated)
RP-LC retention time: 572 s

CSc1ccc(CNC(=O)CC2c3ncccc3C(=O)N2c2ccccc2)cc1 (configuration not stated)
RP-LC retention time: 752 s

Cc1ccc(NC(=O)Nc2ccc3c(c2)CCN3S(=O)(=O)c2ccccc2)cc1F
RP-LC retention time: 1020 s

COc1cccc(CCC(=O)NCC(=O)Nc2nc3ccccc3[nH]2)c1
RP-LC retention time: 639 s
